The nature of series [1]: logP determination by HPLC on reversed phase column (C 18), EEC directive 79/831. In kind it is physicochemical. To be noted: reversed phase HPLC column (C 18). The method, then:
Determine the logP values given in the table as specified in EEC directive 79/831 ex V.A8 using HPLC (high performance liquid chromatography) in a reversed e column (C 18). Temperature: 43° C.
(a) eluents for determination in the acid range: 0.1% aqueous phosphoric acid, acetonitrile, linear gradient of 10% acetonitrile to 90% acetonitrile—corresponding measurement results are marked with an a) in Table 1.
(b) eluents for determination in the neutral range: 0.01-molar aqueous phosphate buffer solution, acetonitrile, linear gradient of 10% acetonitrile to 90% acetonitrile—corresponding measurement results are marked with a b) [sic] in Table 1.
Calibration is done using unbranched alkane-2-ones (with 3 to 16 carbon atoms), whose logP values are known (determination of the logP values using the retention times via linear interpolation between two sequential ketones).

The test system of series [2] is larvae of the diamondback moth (Plutella xylostella). In words: Plutella test (cabbage leaves dipped). In kind it is in vivo. From the text: (§1) Plutella Test To prepare one of the appropriate active ingredient preparations, mix 1 part by weight of the active ingredient with the indicated amount of solvent and emulsifier and dilute the concentrate with emulsifier-containing water to the desired concentration. Treat cabbage leaves (Brassica oleracea) by dipping into the active ingredient preparation of the desired concentration and infesting with larvae of the diamondback moth (Plutella xylostella) while the leaves are still damp. After the desired time, determine the death rate in %. For these purposes 100% means that all the larvae on the leaves were killed; 0% means that no larvae were killed.

The test system of series [3] is Heliothis armigera larvae. Put plainly: Heliothis armigera test (soybean sprouts dipped, larvae). In kind it is in vivo. The text has this:
Heliothis armigera Test To prepare one of the appropriate active ingredient preparations, mix 1 part by weight of the active ingredient with the indicated amount of solvent and emulsifier and dilute the concentrate with emulsifier-containing water to the desired concentration. Treat soybean sprouts (Glycine max) by dipping into the active ingredient preparation of the desired concentration and infesting with Heliothis armigera larvae while the leaves are still damp. After the desired time, determine the death rate in %. For these purposes 100% means that all the larvae on the leaves were killed; 0% means that no larvae were killed.

In series [4] the test system is larvae of the mustard beetle (Phaedon cochleariae). In words: Phaedon larvae test (cabbage leaves dipped). In kind it is in vivo.
Text: as §1, with “Phaedon Larvae Test To” for “Plutella Test To”, “of the mustard beetle (Phaedon cochleariae) while the” for “of the diamondback moth (Plutella xylostella) while the”, “%. For this purpose 100% means” for “%. For these purposes 100% means”, “all the beetle larvae on” for “all the larvae on”, “that no beetle larvae were” for “that no larvae were”

For series [5], the system named is larvae of the fall armyworm (Spodoptera frugiperda). In words: Spodoptera frugiperda test (cabbage leaves dipped). In kind it is in vivo.
Text: as §1, with “Spodoptera frugiperda” for “Plutella”, “infesting them” for “infesting”, “fall armyworm (Spodoptera frugiperda)” for “diamondback moth (Plutella xylostella)”

In series [6] the test system is larvae of the beet armyworm (Spodoptera exigua). In words: Spodotera exigua test (cabbage leaves dipped). The format is in vivo.
Text: as §1, with “Spodotera exigua” for “Plutella”, “infesting them” for “infesting”, “beet armyworm (Spodoptera exigua)” for “diamondback moth (Plutella xylostella)”

Where [7] appears, read: 500 ppm active ingredient, after 7d, cabbage leaves.

Where two headings read alike, the source gives them in different places.

Regarding `N#CCN(C(=O)N1CCC(n2cc(Cl)cn2)C(c2cccc(C(F)(F)F)c2)=N1)c1ccc(OC(F)(F)F)cc1` (stereo not drawn) [Example 1, N-cyanomethyl-4-(4-chloropyrazole-1-yl)-1-(4-trifluoromethoxy-phenylamino)-3-(trifluoromethyl-phenyl)-carbonyl-1,4,5,6-tetrahydropyridazine], in series [1] (pH 2.3, read-out: logp (pH: 2.3)), the chromatographic logP was 4.22. Moreover, the “Death rate in % after 7d” value in series [2] (setting [7]) turned out to be 100%; in series [3] (500 ppm active ingredient, after 7d, soybean sprouts), 100%; in series [4] (setting [7]), 100%; in series [5] (setting [7]) it was 100%; in series [6] (setting [7]), 100%. Moreover, the “efficacy (in words)” value in series [2] (Plutella test), in series [3] (Heliothis armigera test), in series [4] (Phaedon larvae test), in series [5] (Spodoptera frugiperda test) and in series [6] (Spodotera exigua test) was “good efficacy” throughout.

As to `N#Cc1cccc(C(=O)C(Br)CCCl)c1` (stereo not drawn) [Example (X-1), 3′-cyano-2-bromo-4-chlorobutyrophenone], in series [1] (pH 2, pH2), the chromatographic logP amounted to 3.09.

The values are drawn from patent publication US20060128718A1, “Tetrahydropyridazine derivatives having a pesticidal effect” (priority 2002, published 2006).
